The source of these data is patent US7148237B2, “Nitrogen-containing heteroaryl compounds having HIV integrase inhibitory activity” (Shionogi & Co., Ltd., priority 2001, dated 2006).

One data set concerns the target integrase (Human immunodeficiency virus type 1 group M subtype B, UniProt P04585). As to the kind of experiment: Integrase inhibition assay (microtiter plate strand transfer, substrate DNA/target DNA, anti-digoxigenin ELISA readout). It is filed as biochemical. Conditions: concentration of the compound at percent inhibition 50%; OD at 405 nm. The method, then: The inhibitory activities against integrase of the compounds in the present invention have been determined by the assay described below.
Substrate DNA and target DNA, which sequences were indicated below, were synthesized by Amersham Pharmacia Biotech and dissolved in KTE buffer (composition: 100 mM KCl, 1 mM EDTA, 10 mM Tris-HCl (pH 7.6)) at concentration of 2 pmol/μl and 5 pmol/μl, respectively. The DNA solutions were annealed with each complement by slowly cooling after heating.
Streptavidin, obtained from Vector Laboratories, was dissolved in 0.1 M carbonate buffer (composition: 90 mM Na2CO3, 10 mM NaHCO3) at concentration of 40 μg/ml. After coating each well of microtiter plates (obtained from NUNC) with 50 μl of the above solution at 4° C. over night, each well was washed twice with PBS (composition: […], 0.27 mM KCl, 0.43 mM Na2HPO4, 0.14 mM KH2PO4) and blocked with 300 μL of 1% skim milk in PBS for 30 min. Additionally, each well was washed twice with PBS and added 50 μl of substrate DNA solution (2 pmol/μl). The microtiter plates were kept at room temperature for 30 min. Then, each well was washed twice with PBS and once with H2O.
Subsequently, in the each well prepared above were added 45 μl of the reaction buffer prepared from 12 μl of the buffer (composition: 150 mM MOPS (pH 7.2), 75 mM MnCl2, 50 mM 2-mercaptoethanol, 25% glycerol, 500 μg/ml bovine serum albumin-fraction V), 1 μl of target DNA (5 pmol/μl), and 32 μl of the distilled water. Additionally, 6 μl of either a test compound in DMSO or DMSO for positive control (PC) was mixed with the above reaction buffer, then 9 μl of an integrase solution (30 pmol) was added and mixed well. In the well of negative control (NC) was added 9 μl of the integrase dilution buffer (composition: 20 mM MOPS (pH7.2), 400 mM potassium glutamate, 1 mM EDTA, 0.1% NP-40, 20% glycerol, 1 mM DTT, 4 M urea).
The microtiter plates were incubated at 30° C. for 1 hour. The reaction solution was removed and each well was washed twice with PBS. Subsequently, each well of the microtiter plates was filled with 100 μl of anti-digoxigenin antibody labeled with alkaline phosphatase (Sheep Fab fragment: obtained from Boehringer) and incubated at 30° C. for 1 hour. Then, each well was washed twice with 0.05% Tween20 in PBS and once with PBS. Next, 150 μl of the Alkaline phosphatase reaction buffer (composition: 10 mM p-Nitrophenylphosphate (obtained from Vector Laboratories), 5 mM MgCl2, 100 mM NaCl, 100 mM Tris-HCl (pH 9.5)) was added in each well. The microtiter plates were incubated at 30° C. for 2 hours and the reaction was terminated by the addition of 50 μl of 1 N NaOH solution. The optical density (OD) at 405 nm of each well was measured and the percent inhibition was determined by the following expression. The percent inhibition (%)=100[1−{(C abs.−NC abs.)/(PC abs.−NC abs.)}] • C abs.; the OD of the well of the • NC abs.: the OD of the negative control (NC) • PC abs.: the OD of the positive control (PC)
When the percent inhibition (%) is X % at the concentration of x μg/ml and the percent inhibition (%) is Y % at the concentration of y μg/ml, one of which is more than 50% and the other is less than 50%, IC50 can be determined by the following expression. IC50(μg/ml)=x−{(X−50)(x−y)/(X−Y)}
Background: ELISA stands for enzyme-linked immunosorbent assay.

As to `CCOC(=O)c1cc(CC)c2cc(Cc3ccc(F)cc3)cnc2c1O`, the melting point (commonly the temperature, or range, at which the solid turns liquid) lay within 78 to 80 °C.

Turning to `COC(=O)c1cc(C(=O)Nc2ccccn2)c2cc(Cc3ccc(F)cc3)cnc2c1O`, the melting point fell in the range of 190 to 194 °C.

`O=C(c1ccc(Cc2ccc(F)cc2)o1)c1cc(Cl)c2cccnc2c1O` returned a melting point of 126 to 128 °C.

Take `Cc1nc2c(O)c(-c3nnc(Cc4ccccc4)o3)cc(Cl)c2[nH]1` [Compound I-35]: the melting point was 255 to 257 °C. Also, the 50% inhibitory concentration (IC50) (in general, the concentration that gives 50% inhibition) on integrase was 704 nM.

The compound `COC(=O)c1cc(Cl)c2c(nc(Cc3ccc(F)cc3)n2C)c1O` [Compound I-6] returned a melting point of 198 to 201 °C. This compound also gave an IC50 against integrase of 1270 nM.

Regarding `O=C(O)c1ccc2[nH]c(CCc3ccc(F)cc3)nc2c1O`, the melting point fell in the range of 152 to 155 °C.

For `CCn1c(C)nc2c(O)c(-c3ncc(Cc4ccc(F)cc4)o3)ccc21`, the melting point fell in the range of 150 to 151 °C.

For the compound `O=C(c1ccc(Sc2ccc(F)cc2)o1)c1cc(Cl)c2cccnc2c1O` [Compound I-63], the melting point lay within 120 to 122 °C. The same compound gave a half-maximal inhibitory concentration (IC50) at integrase of 1050 nM.

Consider `O=C(O)c1cc(Cl)c2cc(Cc3ccc(F)cc3)cnc2c1O` [Compound I-65], for which the melting point lay in the range of 222 to 224 °C. On integrase, this compound showed a half-inhibitory concentration (IC50) of 332 nM.

Turning to `O=C(c1cc(Cl)c2[nH]c(Cc3ccc(F)cc3)nc2c1O)N1CCCC1` [Compound I-20], the melting point is 268 to 272 °C (dec.). The same compound showed an IC50 against integrase of 2030 nM.

In the case of `COC(=O)c1cc(Cl)c2[nH]c(Cc3ccc(F)cc3)nc2c1O` [Compound I-1], the melting point was 257 to 260 °C. The compound further had an IC50 against integrase of 1610 nM.

As to `O=C(c1ccccc1)c1cc(C(=O)O)c2cc(Cc3ccc(F)cc3)cnc2c1O`, the melting point is 220 to 223 °C.

`O=C(c1nccs1)c1ccc2[nH]c(Cc3ccc(F)cc3)nc2c1O` [Compound I-27]: the melting point was 239 to 240 °C. This compound also gave an IC50 against integrase of 538 nM.

Turning to `Cc1nc2c(O)c(-c3nnc(COc4ccccc4)o3)cc(Cl)c2[nH]1` [Compound I-37], the melting point lay in the range of 266 to 268 °C. The half-inhibitory concentration (IC50) on integrase was 1540 nM.
